Measured values taken from patent US9095604B2, “Composition for preventing inflammations” (Meiji Co, Ltd., priority 2010, dated 2015).

Experiments:
[1] = test system: ulcerative colitis induced by dextran sodium sulfate (DSS); conditions: cited from earlier work
[2] = test system: PGE2 secretion by Caco2 cells; assay: Prostaglandin E2 (PGE2) ELISA of Caco2 culture supernatant; assay type: cell-based; conditions: human Caco2 cells, αNF preincubation
[3] = test system: aryl hydrocarbon receptor (AhR); assay: SEAP reporter assay in HeXS34 cells (pXRE-SEAP) for AhR-activating potency; assay type: cell-based, mouse; conditions: 10 μM αNF preincubated 30 minutes, then 10% v/v OLL1181 for 24 hours
Experimental: The HeXS34 cells prepared in (1) maintained in MEMα medium (Invitrogen, Carlsbad, Calif.) supplemented with 10% fetal bovine serum (FBS) were sown on a 96 well plate at 5000 cells/90 μL per well, and cultured for 24 hours in the presence of and in the absence of 10 μL (5×10^9 cells/mL) of a freeze-dried heat-sterilized lactic acid bacterium strain. […] Culture supernatants were subsequently subjected to an SEAP assay. The culture supernatant obtained in (2) was subjected to quantitative determination of SEAP by a chemiluminescence method using a Great EscAPe SEAP Chemiluminescence kit (Clontech). The assay was carried out three times, and the average value was determined using the luminescence intensity (LU) so obtained as the SEAP activity. […] In the same way as for Example 1, stimulation was carried out for 24 hours using heat-sterilized suspensions of the two types of lactic acid bacterium strains (5×10^9 cells/mL solution was added at 5% v/v and 10% v/v), and the culture supernatant was subjected to SEAP assay. […] (3).

[4] = test system: CYP1A1 expression in Caco2 cells; assay: CYP1A1 expression in Caco2 cells by quantitative real-time PCR; assay type: cell-based, human; conditions: 5 μM αNF preincubated 30 minutes
Experimental: Human Caco2 cells were cultured in DMEM medium (Invitrogen/Gibco, Carlsbad, Calif.) supplemented with 10% FBS and an antibiotic, a portion was preincubated with 5 μM αNF for 30 minutes, and both that which had been preincubated and that which had not been preincubated were subjected to stimulation with a 10% v/v heat-sterilized OLL1181 strain suspension for 4 hours.
The Caco2 cells obtained in (1) were subjected to quantitative real-time PCR. The quantitative real-time PCR was carried out using an ABI 7300 real-time PCR system (Applied Biosystems, Foster City, Calif.) in accordance with an instruction manual. With regard to a primer and a probe, those for human CYP1A1 (Assay ID: Hs02382618_s1) and those for glyceraldehyde-3-phosphate dehydrogenase (GAPDH) (Assay ID: Hs99999905_m1) (Applied Biosystems) were used. The level of CYP1A1 gene expression relative to the level of GAPDH gene expression was calculated and defined as the relative level of CYP1A1 gene expression.

[5] = DSS-treated mouse, compared with no TCDD

| SMILES | Inflammation score [1, 5] | Production of inflammatory cytokines [1, 5] | Shortening of the intestinal tract [1, 5] | Weight loss [1, 5] | Inflammatory response of ulcerative colitis induced by DSS ([1]; mouse, in vivo) | Effect on PGE2 production by stimulation with the OLL1181 strain [2] | Effect on the increase in SEAP activity caused by stimulation with the OLL1181 strain [3] | Effect on the OLL1181-induced increase of CYP1A1 expression [4] |
| --- | --- | --- | --- | --- | --- | --- | --- | --- |
| Clc1cc2c(cc1Cl)Oc1cc(Cl)c(Cl)cc1O2 [TCDD, 2,3,7,8-tetrachlorodibenzo-p-dioxin] | significantly suppressed | significantly suppressed | significantly suppressed | significantly suppressed | suppresses |  |  |  |
| O=c1cc(-c2ccccc2)oc2c1ccc1ccccc12 [αNF, α-naphthoflavone] |  |  |  |  |  | inhibited | significantly inhibited | significantly suppressed |
